We go through 26 compounds from patent US10722514B2 (FLX Bio, Inc., priority 2017, dated 2020).

Usually IC50 stands for the midpoint of a concentration-inhibition curve.

Molecules are shown by their SMILES.

The target of one test is T1, recombinant full-length USP7 (Homo sapiens, UniProt Q93009).
T1 construct: A 25 μl reaction volume containing recombinant full-length USP7 (62 pM)
T1 sequence (Q93009 whole entry): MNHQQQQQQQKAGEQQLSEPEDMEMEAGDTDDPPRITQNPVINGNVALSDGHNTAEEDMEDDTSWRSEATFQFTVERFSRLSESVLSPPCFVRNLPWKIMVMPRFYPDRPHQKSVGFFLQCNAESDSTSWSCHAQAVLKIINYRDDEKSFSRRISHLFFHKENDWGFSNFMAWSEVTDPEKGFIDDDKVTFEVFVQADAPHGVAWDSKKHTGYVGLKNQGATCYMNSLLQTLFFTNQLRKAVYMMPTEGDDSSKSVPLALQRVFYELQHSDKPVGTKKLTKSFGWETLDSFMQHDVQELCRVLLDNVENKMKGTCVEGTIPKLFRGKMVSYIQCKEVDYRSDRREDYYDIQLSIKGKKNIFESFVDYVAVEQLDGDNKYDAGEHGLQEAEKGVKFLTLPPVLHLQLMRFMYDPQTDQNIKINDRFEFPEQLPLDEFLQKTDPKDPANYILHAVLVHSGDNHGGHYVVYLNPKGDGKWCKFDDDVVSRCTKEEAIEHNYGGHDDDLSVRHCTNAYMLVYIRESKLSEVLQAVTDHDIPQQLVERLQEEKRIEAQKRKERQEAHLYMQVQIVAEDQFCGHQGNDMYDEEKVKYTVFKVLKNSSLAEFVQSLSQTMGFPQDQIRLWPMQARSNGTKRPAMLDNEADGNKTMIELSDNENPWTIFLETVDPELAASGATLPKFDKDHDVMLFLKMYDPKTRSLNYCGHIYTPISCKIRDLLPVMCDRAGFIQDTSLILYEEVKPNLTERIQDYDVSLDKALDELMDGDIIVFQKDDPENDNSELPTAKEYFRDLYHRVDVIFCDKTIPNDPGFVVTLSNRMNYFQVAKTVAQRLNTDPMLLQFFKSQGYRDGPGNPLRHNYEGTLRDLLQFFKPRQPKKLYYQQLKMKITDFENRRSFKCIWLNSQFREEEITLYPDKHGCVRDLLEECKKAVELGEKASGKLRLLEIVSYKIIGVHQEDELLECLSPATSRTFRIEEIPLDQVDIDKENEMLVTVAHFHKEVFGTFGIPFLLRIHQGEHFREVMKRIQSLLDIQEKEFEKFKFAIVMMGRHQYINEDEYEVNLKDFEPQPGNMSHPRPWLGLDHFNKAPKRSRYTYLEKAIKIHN
Kind of test: USP7-mediated ubiquitin-rhodamine cleavage assay. The conditions noted are these: recombinant full-length USP7 62 pM; ubiquitin-rhodamine 100 nM; 30-minute incubation with compound, 1 hour reaction at room temperature; read-out: Potency: USP7 IC50. The class given is biochemical. The essentials:
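Rhodamine fluorescence read-out after acetic acid stop; IC50 by 4-parameter nonlinear regression. Enzyme at 62 pM, substrate ubiquitin-rhodamine 100 nM final, 1 h at room temperature in the dark, after 30 min compound preincubation. Buffer: HEPES pH 7.3, NaCl, TCEP, BSA; 1% DMSO.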
On to `Cc1cc(Cl)cc(-c2ccnc3cc(CN4C(=O)CCC4=O)sc23)c1OC1CCNCC1CO` (centres unmarked) [Example 234, 1-((7-(5-Chloro-2-((3-(hydroxymethyl)piperidin-4-yl)oxy)-3-methylphenyl)thieno[3,2-b]pyridin-2-yl)methyl)pyrrolidine-2,5-dione], for which the IC50 is below 1 µM.

Consider `Cc1cc(Cl)cc(-c2ccnc3cc(CO)sc23)c1OC1CCNCC1` [Example 175, (7-(5-Chloro-3-methyl-2-(piperidin-4-yloxy)phenyl)thieno[3,2-b]pyridin-2-yl)methanol], for which the IC50 lay within 1 to 10 µM. On to `Cc1cc(Cl)cc(-c2ccnc3cc(CN4C(=O)CCC4=O)sc23)c1O[C@@H]1CN[C@@H](C)C1` [Example 99, 1-((7-(5-Chloro-3-methyl-2-(((3S,5S)-5-methylpyrrolidin-3-yl)oxy)phenyl)thieno[3,2-b]pyridin-2-yl)methyl)pyrrolidine-2,5-dione], for which the IC50 is below 1 µM. Same read-out and setting: for `Cc1cc(Cl)cc(-c2ccnc3cc(CN4C(=O)C5C(C4=O)C5(C)C)sc23)c1O[C@@H]1C[C@H]2CN[C@@H]1C2` (stereo partly drawn) [Example 331, 3-[[7-[2-[[(1S,4R,5R)-3-azabicyclo[2.2.1]heptan-5-yl]oxy]-5-chloro-3-methyl-phenyl]thieno[3,2-b]pyridin-2-yl]methyl]-6,6-dimethyl-3-azabicyclo[3.1.0]hexane-2,4-dione] the value was below 1 µM; for `CCO[C@H]1CNC[C@H]1Oc1c(C)cc(Cl)cc1-c1ccnc2cc(CO)sc12` [Example 73, (7-(5-Chloro-2-(((3R,4S)-4-ethoxypyrrolidin-3-yl)oxy)-3-methylphenyl)thieno[3,2-b]pyridin-2-yl)methanol], 10 to 30 µM. For `Cc1cc(Cl)cc(-c2ccnc3c(F)c(CN4C(=O)CCC4=O)sc23)c1OC1CCNCC1` [Example 242, 1-((7-(5-Chloro-3-methyl-2-(piperidin-4-yloxy)phenyl)-3-fluorothieno[3,2-b]pyridin-2-yl)methyl)pyrrolidine-2,5-dione], the IC50 is below 1 µM. Same read-out and setting: the figure for `Cc1cc(C(=O)O)cc(-c2ccnc3cc(Cn4c(=O)ccn(CC(F)(F)F)c4=O)sc23)c1O[C@H]1CCCNC1` [Example 291, 3-[2-[[2,6-dioxo-3-(2,2,2-trifluoroethyl)pyrimidin-1-yl]methyl]thieno[3,2-b]pyridin-7-yl]-5-methyl-4-[[(3S)-3-piperidyl]oxy]benzoic acid] is below 1 µM; for `Cc1cc(Cl)cc(-c2ccnc3cc(CN4C(=O)OC(C)(C)C4=O)sc23)c1O[C@@H]1CNC[C@@H]1F` [Example 133, 3-((7-(5-Chloro-2-(((3R,4S)-4-fluoropyrrolidin-3-yl)oxy)-3-methylphenyl)thieno[3,2-b]pyridin-2-yl)methyl)-5,5-dimethyloxazolidine-2,4-dione] it is below 1 µM. Turning to `CCC(O)c1cc2nccc(-c3cc(Cl)cc(C)c3OC3CCNCC3)c2s1` (centres unmarked) [Example 261, 1-(7-(5-Chloro-3-methyl-2-(piperidin-4-yIoxy)phenyl)thieno[3,2-b]pyridin-2-yl)propan-1-ol], the half-maximal inhibitory concentration (IC50) lay in the range of 1 to 10 µM. `O=C1CCC(=O)N1Cc1cc2nccc(-c3cc(Cl)cc(C(F)(F)F)c3O[C@@H]3CNC[C@@H]3F)c2s1` [Example 120, 1-((7-(5-Chloro-2-(((3R,4S)-4-fluoropyrrolidin-3-yl)oxy)-3-(trifluoromethyl)phenyl)thieno[3,2-b]pyridin-2-yl)methyl)pyrrolidine-2,5-dione]: the IC50 was below 1 µM. On the same count and under the same terms, for `Cc1cc(C#N)cc(-c2ccnc3cc(CO)sc23)c1OCC1(C)CNC1` [Example 43, 3-(2-(Hydroxymethyl)thieno[3,2-b]pyridin-7-yl)-5-methyl-4-((3-methylazetidin-3-yl)methoxy)benzonitrile] the value was 1 to 10 µM; for `Cc1cc(Cl)cc(-c2ccnc3cc(CO)sc23)c1O[C@@H]1CN[C@@H](CO)C1` [Example 76, (7-(5-Chloro-2-(((3S,5R)-5-(hydroxymethyl)pyrrolidin-3-yl)oxy)-3-methylphenyl)thieno[3,2-b]pyridin-2-yl)methanol], 10 to 30 µM; for `Cc1cc(Cl)cc(-c2ncnc3cc(CN4C(=O)CC(C)C4=O)sc23)c1O[C@@H]1CNC[C@@H]1F` (stereo partly drawn) [Example 378, 1-[[4-[5-chloro-2-[(3R,4S)-4-fluoropyrrolidin-3-yl]oxy-3-methyl-phenyl]thieno[3,2-d]pyrimidin-6-yl]methyl]-3-methyl-pyrrolidine-2,5-dione; 2,2,2-trifluoroacetic acid], below 1 µM.

Staying with this test, now noted: recombinant full-length USP7 62 pM; ubiquitin-rhodamine 100 nM; 30-minute incubation, 1 hour reaction at room temperature; read-out: Potency (USP7 IC50).
Regarding `Cc1cc(Cl)cc(-c2ccnc3cc(Cn4c(=O)ccn(CC(F)(F)F)c4=O)sc23)c1O[C@@H]1C[C@@H]2NCCO[C@H]2C1` [Example 695, 3-[[7-[2-[[(4aS,6R,7aS)-2,3,4,4a,5,6,7,7a-octahydrocyclopenta[b][1,4]oxazin-6-yl]oxy]-5-chloro-3-methyl-phenyl]thieno[3,2-b]pyridin-2-yl]methyl]-1-(2,2,2-trifluoroethyl)pyrimidine-2,4-dione], the IC50 was below 1 µM. Regarding `COCC1(N)CC(Oc2c(C)cc(Cl)cc2-c2ccnc3cc(Cn4c(=O)ccn(CC(F)(F)F)c4=O)sc23)C1` (centres unmarked) [Example 699, 3-[[7-[2-[3-amino-3-(methoxymethyl)cyclobutoxy]-5-chloro-3-methyl-phenyl]thieno[3,2-b]pyridin-2-yl]methyl]-1-(2,2,2-trifluoroethyl)pyrimidine-2,4-dione], the IC50 is below 1 µM.

The test is the same for the next values; noted with them: recombinant full-length USP7 62 pM; ubiquitin-rhodamine 100 nM; 30-minute pre-incubation, 1 hour reaction at room temperature; read-out: Potency (USP7 IC50).
In the case of `COC(=O)[C@H]1C[C@H](Oc2c(C)cc(Cl)cc2-c2ccnc3cc(Cn4c(=O)ccn(CC(F)(F)F)c4=O)sc23)CN1` [Example 653, methyl (2R,4S)-4-[4-chloro-2-[2-[[2,6-dioxo-3-(2,2,2-trifluoroethyl)pyrimidin-1-yl]methyl]thieno[3,2-b]pyridin-7-yl]-6-methyl-phenoxy]pyrrolidine-2-carboxylate], the half-inhibitory concentration (IC50) is below 1 µM. The same measure, in the same setting: for `Cc1cc(Cl)cc(-c2ncnc3cc(Cn4c(=O)ccn(CC(F)(F)F)c4=O)sc23)c1OC1CC(N)C1` (centres unmarked) [Example 534, 3-[[4-[2-(3-aminocyclobutoxy)-5-chloro-3-methyl-phenyl]thieno[3,2-d]pyrimidin-6-yl]methyl]-1-(2,2,2-trifluoroethyl)pyrimidine-2,4-dione; 2,2,2-trifluoroacetic acid] the value was below 1 µM. Regarding `Cc1cc(Cl)cc(-c2ccnc3cc(Cn4c(=O)ccn(CC(F)(F)F)c4=O)sc23)c1O[C@H]1CCCNC1` [Example 484, 3-[[7-[5-chloro-3-methyl-2-[[(3S)-3-piperidyl]oxy]phenyl]thieno[3,2-b]pyridin-2-yl]methyl]-1-(2,2,2-trifluoroethyl)pyrimidine-2,4-dione], the IC50 is below 1 µM. On the same count and under the same terms, for `Cc1cc(Cl)cc(-c2ncnc3cc(Cn4c(=O)c(F)cn(CC(F)(F)F)c4=O)sc23)c1O[C@H]1CCCNC1` [Example 556, 3-[[4-[5-chloro-3-methyl-2-[[(3S)-3-piperidyl]oxy]phenyl]thieno[3,2-d]pyrimidin-6-yl]methyl]-5-fluoro-1-(2,2,2-trifluoroethyl)pyrimidine-2,4-dione] the value was below 1 µM. Consider `Cc1cc(Cl)cc(-c2ccnc3cc(Cn4c(=O)ccn(C)c4=O)sc23)c1O[C@@H]1CCN(C(C)C)C[C@@H]1C` [Example 488, 3-[[7-[5-chloro-2-[[(3S,4R)-1-isopropyl-3-methyl-4-piperidyl]oxy]-3-methyl-phenyl]thieno[3,2-b]pyridin-2-yl]methyl]-1-methyl-pyrimidine-2,4-dione], for which the IC50 was below 1 µM. Consider `Cc1cc(Cl)cc(-c2ccnc3cc(Cn4c(=O)ccn(CC(F)(F)F)c4=O)sc23)c1OC1CCNCC1(C)C` (centres unmarked) [Example 616, 3-[[7-[5-chloro-2-[(3,3-dimethyl-4-piperidyl)oxy]-3-methyl-phenyl]thieno[3,2-b]pyridin-2-yl]methyl]-1-(2,2,2-trifluoroethyl)pyrimidine-2,4-dione; 2,2,2-trifluoroacetic acid], for which the IC50 is below 1 µM. For `Cc1cc(Cl)cc(-c2ccnc3cc(CN4C(=O)CCC4=O)sc23)c1O[C@H]1CC[C@@H](C)NC1` [Example 416, 1-[[7-[5-chloro-3-methyl-2-[[(3S,6R)-6-methyl-3-piperidyl]oxy]phenyl]thieno[3,2-b]pyridin-2-yl]methyl]pyrrolidine-2,5-dione], the IC50 was below 1 µM. Regarding `Cc1cc(Cl)cc(-c2ccnc3cc(Cn4c(=O)ccn(CC(F)(F)F)c4=O)sc23)c1O[C@H]1CN[C@H](C(F)F)C1` [Example 574, 3-[[7-[5-chloro-2-[(3R,5S)-5-(difluoromethyl)pyrrolidin-3-yl]oxy-3-methyl-phenyl]thieno[3,2-b]pyridin-2-yl]methyl]-1-(2,2,2-trifluoroethyl)pyrimidine-2,4-dione], the IC50 was below 1 µM. Still for that read-out and setting: the figure for `Cc1cc(Cl)cc(-c2ccnc3cc(Cn4c(=O)ccn(C)c4=O)sc23)c1O[C@@H]1CNC[C@@H](F)C1` [Example 496, 3-[[7-[5-chloro-2-[[(3S,5S)-5-fluoro-3-piperidyl]oxy]-3-methyl-phenyl]thieno[3,2-b]pyridin-2-yl]methyl]-1-methyl-pyrimidine-2,4-dione] is below 1 µM; for `Cc1cc(C#N)cc(-c2ccnc3cc(Cn4c(=O)ccn(C)c4=O)sc23)c1OC1CCNCC1` [Example 454, 3-methyl-5-[2-[(3-methyl-2,6-dioxo-pyrimidin-1-yl)methyl]thieno[3,2-b]pyridin-7-yl]-4-(4-piperidyloxy)benzonitrile] it is below 1 µM. On to `Cc1cc(Cl)cc(-c2ccnc3cc(Cn4c(=O)ccn(C)c4=O)sc23)c1OC1CC2CC1CN2` (centres unmarked) [Example 476, 3-[[7-[2-(2-azabicyclo[2.2.1]heptan-5-yloxy)-5-chloro-3-methyl-phenyl]thieno[3,2-b]pyridin-2-yl]methyl]-1-methyl-pyrimidine-2,4-dione; 2,2,2-trifluoroacetic acid], for which the IC50 is below 1 µM.
